Type in all cases: in vivo, mouse
Experiment [1] deals with heat nociceptive stimulation. As to the kind of experiment: Anti-nociceptive activity test, tail-flick method. On the procedure: (1) Experimental animal, male ddy mice (Japan SLC), weighing the body weight in the range of 22 to 25 g, were used for the studies. The animals had been kept under constant conditions (room temperature 22±2° C., humidity 55±5%, 12 hours light-and-dark cycle having light time 9:00 to 21:00 and dark time 21:00 to 9:00) until used for an experiment. The animals were fed the mouse solid diet (F2, Funabashi farm. Funabashi, Japan) with unrestricted tap water intake.
SS8225-01, 02, 03 04, 05, 06, 07 and 08 as examples and SS8225-09, 10, 11 and 12 as comparison examples were used as the administered drugs. […] In addition only Liger solution was administered as an experimental control. The animals were left for 60 minutes in the plastic cage to become familiar to the environment prior to the test in which measured a latent time for each mouse before drug administration in accordance with a tail-flick method noted below. Heat was radiated to a part of each mouse tail which is 2 cm from the end of its tail. Each of heat radiation periods before beginning of tail-flick was measured as a false pain threshold. Mice which responded to the stimulation within 2.5 to 3.5 seconds were pre-selected for the test. Administration solution under one administration condition for one kind of drug was administered to one experimental animal group including 10 mice. After the body weight of each mouse was measured, each volume of the administration solution was adjusted to be 0.1 mL/10 g of mouse body weight and then the solution was administered. The administration methods were two methods of subcutaneous administration (s. c.) and oral administration (p. o.). On subcutaneous administration, the administration solution of 0.1 mL per 10 g of body weight (0.1 mL/10 g) was injected into the back of the mouse using 27 gauge needle. On oral administration, the administration solution of 0.1 mL per 10 g of body weight (0.1 mL/10 g) was administered using an oral sonde.
Heat was radiated to a part of each mouse's tail of respective experimental group, which is 2 cm from the end of its tail, at 15, 30 and 60 minutes after the drug administration according to the preset measurement interval and a latent time until respective mouse swung its tail was measured as a false pain threshold value. The maximum stimulation period (cut-off-time) was set as 10 seconds to minimize the damage to the stimulation part. The anti-nociceptive effect was evaluated quantitatively by calculating % MPE (% of maximum possible effect) according to the following formula. [formula] T1: A latent time until beginning of tail-flick before respective drug administration (seconds) T2: A latent time until beginning of tail-flick after respective drug administration (seconds) Tc: A maximum stimulation period (cut-off-time)
The graphs (FIG. 1, FIG. 3, FIG. 5, FIG. 7, FIG. 9, FIG. 11, FIG. 13, FIG. 15, FIG. 17, FIG. 19, FIG. 21, FIG. 23, FIG. 25, FIG. 27, FIG. 29, FIG. 31, FIG. 33 and FIG. 35) showing a time-course variation of % MPE were created, in which a vertical axis is an average value with a standard error (means ±S. E. M.) obtained by calculation of % MPE of respective animals of 10 mice every administration condition of respective drugs and a horizontal axis is a time after administration. After treating % MPE data of each animal of experimental groups with respective doses and % MPE data of each animal of the experimental group with a control Ringer's solution at the same measurement time every drugs using the two-way layout dispersion analysis (two-way ANOVA), the hazard-ratio of P<0.05 was decided to be a significant difference according to Bonferroni post-test.
A lasting time of anti-nociceptive activity of each drug in the present description is the lasting time of anti-nociceptive activity under the dose condition providing the longest lasting time.
ED50 is represented in the unit of mg/Kg.
For orientation: Thermal pain tests record how soon the animal reacts.

Another experiment relates to inflammatory pain model. As to the kind of experiment: Rheumatoid arthritis / inflammatory pain model (CFA), Von Frey filament method. To be noted: for ED50: Mus musculus, po, read-out: ED50 of the anti-nociceptive activity calculated using the unit-time AUC value. On the procedure: Experimental animal, male ddy type mice (Nihon SLC), weighing the body weight in the range of 15 to 20 g, were used for the studies. The animals had been kept under constant conditions (room temperature 23±1° C., humidity 52±2%, 12 hours light-and-dark cycle having light time 7:00 to 19:00 and dark time 19:00 to 7:00) until used for an experiment. The animals were fed the mouse solid diet (F2, Funabashi farm. Funabashi, Japan) with unrestricted tap water intake, and kept in captivity for at least more than two days in a laboratory.
A mouse was firmly fixed without anesthesia and 25 μL of Complete Freund's Adjuvant (CFA) using a number 30 guage needle (Termo) was subcutaneously administered into the dorsum of left hind foot to provide an inflammatory pain model. The model was kept under the conditions noted above until used for the test.
Measurement of anti-nociceptive activity on the inflammatory pain model was conducted according to Von Fray filament method as well as on never damaged model 5 days after CFA administration. The drugs were orally administered.
The anti-nociceptive activity is represented as a unit AUC value (AUC/min) which is the total AUC value or AUC divided by the measurement time and compared to study. ED50 of the anti-nociceptive activity was calculated by reducing the measurement value to a percentage of the upper limit which was set as 2.0 for the unit AUC.

A further experiment concerns pressure stimulation. As to the kind of experiment: Tail-pressure test. To be noted: either oral or subcutaneous administration (FIG. 67, 68).
Setting [2] is: mice, p.o., at activity-peak time, parentheses = 95% confidence limit.
The mark [3] stands for this setting: mice, s.c., at activity-peak time, parentheses = 95% confidence limit.

Like-named read-outs stand apart in the source and are kept apart here.

Description for pressure stimulation: The maximum pressure was 100 mmHg. The mice used for the experiment reacted to the pressure range between 40 mmHg and 50 mmHg in pre-selective experiment. A few mice or a few dozen of mice under the same condition were stimulated by adding pressure and respective threshold values for the pain reaction were measured in constant intervals after administration in accordance with different drugs administered and the different dosage thereof. According to the measurement value of the pain reaction threshold value, a percent of maximum possible effect, (% of MPE) was calculated using the following formula to quantify the anti-nociceptive activity. % of MPE=[(Pt−P0)/(Pc−Po)]×100 (in the formula, Po is a pain reaction threshold value before drug administration; Pt is a pain reaction threshold value t minute after drug administration; and Pc is a maximum simulative pressure)
The mouse which reacted to 532 through 665 Pa (40-50 mmHg) was reselected for the test. In addition the maximal stimulating pressure was set as 1333 Pa (100 mmHg). Then % MPE at this point was calculated from formula (1) as well as noted above.

Turning to `CN1CC[C@]23c4c5ccc(O)c4O[C@H]2[C@@H](O)C=C[C@H]3[C@H]1C5` [Morphine], the ED50 – broadly, the dose that gives a 50% effect, or the effect in half of the subjects – in experiment [1] (Mus musculus, po, mice, p.o., at activity-peak time, parentheses = 95% confidence limit, read-out: Oral ED50) was 29.9 mg/kg; in the experiment on inflammatory pain model (CFA administered foot), 113 mg/kg; in the experiment on inflammatory pain model (CFA non-administered foot), 67.9 mg/kg. For the same molecule, the “activity-peak time after the oral administration” value in experiment [1] (mice, p.o.) came to 45 min. In experiment [1] (setting [2]), the “Oral ED50” value is 29.9 (26.37-33.95) mg/Kg. Besides, the “activity-peak time after the subcutaneous administration” value in experiment [1] (mice, s.c.) was determined as 30 min. Also, the “Subcutaneous ED50” value in experiment [1] (setting [3]) amounted to 2.51 mg/kg. Besides, the “lasting time of anti-nociceptive activity” value in experiment [1] (p.o., dose of 67.5 mg/Kg) turned out to be 5 h; in experiment [1] (s.c., dose of 5 mg/Kg) it was 1.5 h; in the experiment with inflammatory pain model (mice, CFA model, oral) it was 360 min. In addition, the “peak of anti-nociceptive activity after administration” value in the experiment on inflammatory pain model (mice, CFA model, oral) worked out at 30 min.
As to “Iminoethyl-[Tyr]-[D-Met(O)]-[Phe]-[N-MeβAla]-NHCH3 [SS8225-07]”, the “dosage providing the same AUC, as part of morphine dosage” value in experiment [1] (AUC of %MPE vs time, either oral or subcutaneous administration (FIG. 37, 38)) is on record as “a half through one fiftieth”; with pressure stimulation, “one hundredth through one twentieth”. Besides, the “activity-peak time after the oral administration” value in experiment [1] (mice, p.o.) was 180 min. Moreover, the “Oral ED50” value in experiment [1] (setting [2]) was determined as 2.51 mg/kg. In addition, the “activity-peak time after the subcutaneous administration” value in experiment [1] (mice, s.c.) stood at 60 min. Besides, the “Subcutaneous ED50” value in experiment [1] (setting [3]) was 0.05 mg/kg. Also, the “lasting time of anti-nociceptive activity” value in experiment [1] (p.o., dose of 10 mg/Kg) was found to be 8 h; in experiment [1] (s.c., dose of 0.125 mg/Kg), 5 h.

The record behind these values is patent US20080009448A1, “Peptide Derivative” (priority 2006, published 2008).
